From ChEMBL document CHEMBL3988442, “University of Dundee, Small-Polar-MMV Screening Library” (2021)
Several values for one entry are separate records, joined by “and”; a condition that tells them apart may be missing. Equal entries are not always repeated.

Columns and labels:
Leishmania donovani = assay: Leishmania intramacrophage assay; format: functional, organism-based; conditions: for IC50: Leishmania donovani
Trypanosoma brucei = assay: Trypanosoma brucei 72 hour study; format: functional, organism-based; conditions: for IC50: Trypanosoma brucei, 72 h
Histidine--tRNA ligase [1] = biological target: T1, Histidine--tRNA ligase (Trypanosoma cruzi (strain CL Brener), UniProt Q4DA54); assay: Trypanosoma cruzi histidyl tRNA synthetase (Tc-HisRS); format: functional
T1 sequence (Q4DA54 whole entry): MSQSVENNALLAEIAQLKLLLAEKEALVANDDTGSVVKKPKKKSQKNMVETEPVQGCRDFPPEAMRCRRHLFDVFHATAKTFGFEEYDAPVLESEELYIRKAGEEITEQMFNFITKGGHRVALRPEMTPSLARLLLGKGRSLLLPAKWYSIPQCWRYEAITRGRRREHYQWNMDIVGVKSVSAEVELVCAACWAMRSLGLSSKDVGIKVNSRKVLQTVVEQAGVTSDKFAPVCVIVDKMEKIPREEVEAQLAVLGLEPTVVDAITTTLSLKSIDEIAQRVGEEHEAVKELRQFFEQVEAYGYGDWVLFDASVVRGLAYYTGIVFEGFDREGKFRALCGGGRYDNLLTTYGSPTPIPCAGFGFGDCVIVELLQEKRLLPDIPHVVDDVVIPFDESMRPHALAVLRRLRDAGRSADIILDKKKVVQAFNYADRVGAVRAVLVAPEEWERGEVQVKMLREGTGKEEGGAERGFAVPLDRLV

Plasmodium falciparum = assay: Calibr Malaria Delayed Death Assay SOP; format: functional, organism-based; conditions: for IC50: Plasmodium falciparum
[2] = system: Mycobacterium tuberculosis; assay: Cornell M. t heat shock assay; format: functional, organism-based; conditions: Mycobacterium tuberculosis
Lysine--tRNA ligase = Lysine--tRNA ligase (Plasmodium falciparum (isolate 3D7), UniProt Q8IDJ8); assay: Pf-KRS-1 (Lysyl-RNA Synthetase-1, KRS-1, cytosolic KRS) from Plasmodium falciparum. Inhibitor assay, 384 well plate, luminescence read.; format: functional
Chain of Lysine--tRNA ligase (Q8IDJ8 whole entry): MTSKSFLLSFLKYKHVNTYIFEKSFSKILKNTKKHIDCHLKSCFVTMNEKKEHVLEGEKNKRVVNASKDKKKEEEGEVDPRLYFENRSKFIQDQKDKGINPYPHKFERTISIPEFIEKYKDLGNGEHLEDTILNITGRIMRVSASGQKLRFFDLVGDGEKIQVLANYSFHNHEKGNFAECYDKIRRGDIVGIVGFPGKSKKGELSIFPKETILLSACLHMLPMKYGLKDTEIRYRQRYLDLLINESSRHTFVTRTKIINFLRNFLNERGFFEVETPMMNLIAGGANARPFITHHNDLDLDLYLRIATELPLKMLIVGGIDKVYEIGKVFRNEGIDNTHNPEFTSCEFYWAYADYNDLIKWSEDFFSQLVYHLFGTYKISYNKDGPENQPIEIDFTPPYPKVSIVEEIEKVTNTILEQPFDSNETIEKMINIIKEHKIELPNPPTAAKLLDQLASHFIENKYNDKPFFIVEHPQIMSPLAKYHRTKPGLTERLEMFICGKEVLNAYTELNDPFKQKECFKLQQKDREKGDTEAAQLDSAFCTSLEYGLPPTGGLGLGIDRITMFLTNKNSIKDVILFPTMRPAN

Histidine--tRNA ligase [3] = biological target: T2, Histidine--tRNA ligase (Leishmania infantum, UniProt A4I591); assay: Leishmania infantum Histidine tRNA synthetase (LdHisRS); format: functional
T2 sequence (A4I591 whole entry): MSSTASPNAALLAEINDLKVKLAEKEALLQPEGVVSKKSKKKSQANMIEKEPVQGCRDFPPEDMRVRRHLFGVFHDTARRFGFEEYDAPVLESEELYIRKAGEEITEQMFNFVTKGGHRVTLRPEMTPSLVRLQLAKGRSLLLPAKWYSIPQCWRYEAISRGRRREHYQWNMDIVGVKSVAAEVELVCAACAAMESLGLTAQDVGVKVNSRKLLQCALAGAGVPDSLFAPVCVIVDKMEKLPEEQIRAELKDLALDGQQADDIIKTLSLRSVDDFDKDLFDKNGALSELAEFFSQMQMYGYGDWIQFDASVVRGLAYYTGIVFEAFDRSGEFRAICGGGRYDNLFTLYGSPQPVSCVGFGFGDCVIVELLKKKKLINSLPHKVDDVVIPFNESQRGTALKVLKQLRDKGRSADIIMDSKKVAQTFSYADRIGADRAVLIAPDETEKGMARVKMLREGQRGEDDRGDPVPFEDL

[4] = biological target: T3, Coenzyme A biosynthesis bifunctional protein CoaBC (Mycobacterium tuberculosis (strain ATCC 25618 / H37Rv), UniProt P9WNZ1); assay: Biomol Green assay for MtCoaBC inhibitor, OD650 read; format: functional
T3 sequence (P9WNZ1 whole entry): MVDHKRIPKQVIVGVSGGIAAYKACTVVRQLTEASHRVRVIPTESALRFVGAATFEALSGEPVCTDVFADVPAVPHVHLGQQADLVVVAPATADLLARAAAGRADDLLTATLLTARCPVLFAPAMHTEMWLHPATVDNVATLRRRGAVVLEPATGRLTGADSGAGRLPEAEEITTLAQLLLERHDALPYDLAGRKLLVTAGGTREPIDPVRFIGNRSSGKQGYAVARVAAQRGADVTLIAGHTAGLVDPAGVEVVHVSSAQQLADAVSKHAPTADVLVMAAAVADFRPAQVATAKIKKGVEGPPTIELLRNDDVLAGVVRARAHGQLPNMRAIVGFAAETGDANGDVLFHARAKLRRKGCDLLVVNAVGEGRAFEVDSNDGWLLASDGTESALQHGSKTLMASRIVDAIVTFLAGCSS

[5] = biological target: T4, Ubiquitin-activating enzyme e1, putative (Leishmania donovani (strain BPK282A1), UniProt E9BSI1); assay: Leishmania donovani Ubiquitin Activating Enzyme (LdE1); format: functional
T4 sequence (E9BSI1 whole entry): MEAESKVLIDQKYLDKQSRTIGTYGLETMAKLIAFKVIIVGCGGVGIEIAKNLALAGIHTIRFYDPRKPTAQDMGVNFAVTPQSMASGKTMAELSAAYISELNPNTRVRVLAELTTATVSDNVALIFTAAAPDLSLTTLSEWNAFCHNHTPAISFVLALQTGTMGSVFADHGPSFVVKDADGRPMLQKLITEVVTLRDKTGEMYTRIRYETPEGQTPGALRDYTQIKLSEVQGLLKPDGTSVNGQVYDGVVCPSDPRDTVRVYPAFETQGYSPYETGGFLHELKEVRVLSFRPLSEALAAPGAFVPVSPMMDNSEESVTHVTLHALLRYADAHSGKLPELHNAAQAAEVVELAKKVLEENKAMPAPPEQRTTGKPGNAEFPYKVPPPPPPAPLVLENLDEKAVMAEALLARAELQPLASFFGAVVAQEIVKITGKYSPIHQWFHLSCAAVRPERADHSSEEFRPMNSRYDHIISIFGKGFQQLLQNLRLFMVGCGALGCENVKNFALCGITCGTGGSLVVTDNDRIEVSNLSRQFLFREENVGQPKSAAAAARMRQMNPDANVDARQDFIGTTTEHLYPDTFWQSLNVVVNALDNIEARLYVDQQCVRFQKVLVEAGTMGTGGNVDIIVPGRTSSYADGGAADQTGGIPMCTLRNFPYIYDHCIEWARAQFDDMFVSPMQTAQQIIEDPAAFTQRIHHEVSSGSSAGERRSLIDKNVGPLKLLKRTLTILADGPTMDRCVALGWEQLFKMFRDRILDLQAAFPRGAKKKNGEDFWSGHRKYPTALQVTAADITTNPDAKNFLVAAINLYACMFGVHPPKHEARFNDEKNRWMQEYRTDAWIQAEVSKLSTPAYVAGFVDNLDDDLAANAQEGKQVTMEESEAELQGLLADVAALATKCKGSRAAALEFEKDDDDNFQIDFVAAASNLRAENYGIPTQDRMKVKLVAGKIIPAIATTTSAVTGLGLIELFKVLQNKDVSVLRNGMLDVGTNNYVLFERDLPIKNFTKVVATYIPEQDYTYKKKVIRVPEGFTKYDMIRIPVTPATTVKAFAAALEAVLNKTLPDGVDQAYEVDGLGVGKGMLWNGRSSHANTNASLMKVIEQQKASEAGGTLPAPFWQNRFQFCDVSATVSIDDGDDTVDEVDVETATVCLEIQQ

| SMILES | pIC50 (Trypanosoma brucei) | IC50 (Trypanosoma brucei) [µM] | IC50 (Histidine--tRNA ligase [1]) | IC50 (Lysine--tRNA ligase) [µM] | IC50 (Histidine--tRNA ligase [3]) | also measured |
| --- | --- | --- | --- | --- | --- | --- |
| CC(C)N1CCCC(C(=O)N2CCN(c3nsc4ccccc34)CC2)C1 (stereo unspecified) | 4.562 and 4.572 | 20.3 | – | – | – | pIC50 (Leishmania donovani): 4.419; IC50 (Leishmania donovani): 30.3 µM |
| Cl.Fc1cccc(CN2CCC(c3cc4ncccc4cn3)CC2)c1F | – | – | 28.5 µM and 56.4 µM | – | – | pIC50 (Plasmodium falciparum): 6.161; IC50 (Plasmodium falciparum): 0.897 µM; IC50 [2]: 43.3 µM |
| CC(C)(C)C(=O)NCCc1ccn(-c2ccccc2)n1 | 5.66 and 5.649 | 2.22 | – | – | – | – |
| Cc1ccc(CNC2CCN(CCc3ccncc3)CC2)cc1C | 5.061 and 5.288 | 6.7 | – | – | – | pIC50 (Leishmania donovani): 4.955; IC50 (Leishmania donovani): 15.6 µM |
| CCN1CC(CN(C)c2cc(C)nc(N)n2)Oc2ccccc21 (stereo unspecified) | 4.724 and 4.705 | 19.3 | – | – | – | pIC50 (Leishmania donovani): 4.519; IC50 (Leishmania donovani): 35.1 µM |
| Cc1c(C)c(C)c2[nH]c(-c3cn(C4CCNCC4)nn3)nc2c1C | 5.199 and 5.184 | 6.01 | – | – | – | pIC50 (Leishmania donovani): 4.511; IC50 (Leishmania donovani): 19.8 µM |
| Cc1ccc(CNC(CN2CCN(C)CC2)c2ccccc2)cc1C (stereo unspecified) | 5.711 and 5.621 | 1.7 | – | – | – | IC50 (Leishmania donovani): 4.57 µM |
| Cn1cc(NC(=O)NCc2ccsc2)ccc1=O | – | – | 4.72 µM and 5.06 µM | > 50.1 | 2.07 µM and 2.41 µM and 2.32 µM and 2.42 µM | – |
| Cc1cc(=O)n(C)cc1NC(=O)Cc1cc(F)ccc1F | – | – | 21.1 µM | > 50.1 | 1.69 µM and 2.09 µM and 0.814 µM and 0.806 µM | – |
| CNc1cc(-c2ccccc2CN)c2cc[nH]c2n1 | – | – | 22.6 µM and 37.8 µM | – | 10.6 µM and 10.1 µM | IC50 [4]: > 30.2 µM |
| Cc1nc(C2(O)CCCNCC2)sc1CCOc1ccccc1F.Cl (stereo unspecified) | 4.648 and 4.682 | 21.9 | – | – | – | – |
| CCOC1CCN(C(=O)Nc2ccc(=O)n(C)c2)CC1 | – | – | 23.9 µM and 23.3 µM | – | 0.995 µM and 1.6 µM and 2.46 µM and 3.11 µM | IC50 [5]: > 100 µM |
| COc1cccn(CC(=O)N2CCC3(CCNCC3)C2)c1=O | – | – | 6.27 µM and 15.2 µM | > 50.1 | 3.66 µM and 3.72 µM | – |
| Cn1cc(NC(=O)N2CCC(NS(C)(=O)=O)CC2)ccc1=O | – | – | 52.1 µM and 49.1 µM | > 50.1 | 2.32 µM and 2.57 µM | IC50 [4]: > 30.2 µM; IC50 [5]: > 100 µM |
| Cc1cc(=O)n(C)cc1NC(=O)NCc1cccc(F)c1 | – | – | 9.43 µM and 9.23 µM | > 50.1 | 6.8 µM and 6.63 µM | – |
| NCC1Cc2cc(-c3nccc(N4CCC(O)CC4)n3)cc(F)c2O1 (stereo unspecified) | – | – | 20.1 µM and 18.7 µM | – | 31.2 µM and 28.1 µM | IC50 [4]: > 30.2 µM; pIC50 (Plasmodium falciparum): 6.277; IC50 (Plasmodium falciparum): 0.569 µM |
| Cn1cc(NC(=O)N2CCC(CN3CCCC3)CC2)ccc1=O | – | – | > 100 µM | – | – | IC50 [5]: > 100 µM |
| Cn1cc(NC(=O)N2CCC2c2ccccc2)ccc1=O (stereo unspecified) | – | – | 27.5 µM and 31.2 µM | > 50.1 | 7.08 µM and 6.57 µM | IC50 [5]: > 100 µM |
| Cc1cc(=O)n(C)cc1NC(=O)Cc1cccc(Cl)c1 | – | – | 4.77 µM | > 50.1 | 5 µM and 6.56 µM | – |
| Cc1cccc(CN2CCCCC2c2n[nH]cc2-c2cc(C)no2)c1.Cl (stereo unspecified) | 4.638 and 4.693 | 19.8 | – | – | – | – |
